Literature values in patent EP2637636B1, “LEAVE-ON NONSOLID SKIN CONDITIONING COMPOSITIONS CONTAINING 12-HYDROXYSTEARIC ACID” (Unilever PLC, priority 2010, dated 2012).

Conditions: surfactants used in the Examples

HLB | Compound
> 7 | CCCCCCCCCCCCNC(=O)[C@H](O)[C@@H](O)[C@H](O[C@@H]1O[C@H](CO)[C@H](O)[C@H](O)[C@H]1O)[C@H](O)CO [C12 lactobionamide]
> 7 | Hexadecyl n-methyl glucamide
4.7 | Sorbitan Monostearate [Span 60]

Compound | HLB
Glyceryl hydroxystearate | about 5
